Assay results taken from patent EP3381907A1, “SYMMETRICAL 2-AMINOPHENYL-BENZAZOLYL-5-ACETATE COMPOUNDS AND THEIR USE AS ANTI-HEPARANASE” (Leadiant Biosciences SA, priority 2017, dated 2018).

Test system: HT1080 (human fibrosarcoma)
Experiment: Matrigel cell invasion assay, HT1080
Type: cell-based
Conditions: HT-1080, HT1080, test compound at 2.5 µM, 24 h pre-treatment, 24 h invasion
Protocol: Heparanase inhibitors were then evaluated for their activity on the invasive potential of HT1080 (human fibrosarcoma), U87MG (human glioblastoma astrocytoma) and U2OS (human osteosarcoma) human cell lines, using the Matrigel cell invasion assay which allows to assess the cell invasion ability of malignant and normal cells.
Invasion assay was performed using BioCoat cell culture inserts (BioCoat 8.0µm PET Membrane 24 Well Permeable Supports, Corning). Filters were coated with 100 µl of 300 µg/ml Matrigel dissolved in coating buffer (0.01 M Tris pH 8.0, 0.7% NaCl) (Becton-Dickinson Sciences). DMEM (Dulbecco's Modified Eagle's Medium) containing 5% FBS was added to the lower chambers. Cells were pre-treated with heparanase inhibitors for 24 h, detached and added to the upper chambers in media containing the inhibitors. Cells were allowed to invade for 24 h at 37°C in a CO2 incubator and then unmigrated cells were removed from the upper chamber with a cotton swab. The invading cells were fixed, stained with 0.1% crystal violet for 10 min at room temperature, photographed and counted under inverted microscope.
Test compounds were analyzed at fixed concentration (2.5 µM) for several fields, in duplicates. Activity of test compounds was compared to the reference compound. Activity of most interesting compound was confirmed in a second cell invasion assay. Data were expressed as the percent invasion with respect to cell migration through uncoated insert membrane (see Table 3 below)
Table 3. […] In Invasion assay, data were expressed as the percent invasion (range) with respect to cell migration through uncoated insert membrane. In Adhesion assay, data were expressed as the percent of adhesion with respect to the control (100%). • Legend • ++: 50-90% • + : < 50% • - : Not Active

Structure (SMILES)	inhibition at 2.5 µM [%]
O=C(O)Cc1ccc2oc(-c3ccc(NC(=O)Nc4ccc(-c5nc6cc(CC(=O)O)ccc6o5)cc4F)c(F)c3)nc2c1 [Compound 20, 2,2'-(((Carbonylbis(azanediyl))bis(3-fluoro-4,1-phenylene))bis(benzo[d]oxazole-2,5-diyl))diacetic acid]	< 50
O=C(O)CNC(=O)Cc1ccc2oc(-c3ccc(NC(=O)Nc4ccc(-c5nc6cc(CC(=O)NCC(=O)O)ccc6o5)cc4F)c(F)c3)nc2c1 [Compound 25, 2,2'-((2,2'-(((Carbonylbis(azanediyl))bis(3-fluoro-4,1-phenylene))bis(benzo[d]oxazole-2,5-diyl))bis(acetyl))bis(azanediyl))diacetic acid]	50 to 90
